Data reported in patent US20150045322A1, “COMBINATION TREATMENT COMPRISING SULPHATED GLYCOSAMINOGLYCANS FOR INDUCING LABOR” (DILAFOR AB, priority 2012, published 2015).
Positions of bridges follow the written chain, without caps; N, C: chain ends. Non-standard residues stand in square brackets, D forms with d. Residues, ends and D or L forms follow the SMILES beside them. Orn = NCCC[C@H](N)C(=O)O; Mpa = O=C(O)CCS

Legend:
[1] = comparison value for heparin, species not stated; cited from earlier work
[2] = test system: Human uterine smooth muscle cells; assay: Intracellular Ca2+ with Fluo-4 and confocal live cell imaging; assay type: cell-based
Excerpt: Human uterine smooth muscle cells were established in a culture. A method to measuring intracellular Ca^2+ with the calcium indicator dye Fluo-4 and live cell imaging with confocal microscopy was established for the cells.

Compound: heparin
- corresponding (subcutaneous) bioavailability [1]: about 10%

Compound: CC[C@H](C)[C@@H]1NC(=O)[C@H](Cc2ccc(O)cc2)NC(=O)[C@@H](N)CSSC[C@@H](C(=O)N2CCC[C@H]2C(=O)N[C@@H](CC(C)C)C(=O)NCC(N)=O)NC(=O)[C@H](CC(N)=O)NC(=O)[C@H](CCC(N)=O)NC1=O [oxytocin]
- concentration giving maximum effect on Ca2+-influx to the cytosol ([2]; dose-dependent effect): 0.05 IU/ml

Compound: NCCOB(c1ccccc1)c1ccccc1 [2-APB, 2-Aminoethoxydiphenyl borate]
- effect on oxytocin and oxytocin/DF01 stimulated Ca2+-transport ([2]; 100 μM, 30 min of incubation): decreased strongly

Compound: CCOc1ccc(C[C@H]2NC(=O)CCSSC[C@@H](C(=O)N3CCC[C@H]3C(=O)N[C@@H](CCCN)C(=O)NCC(N)=O)NC(=O)[C@H](CC(N)=O)NC(=O)[C@H]([C@@H](C)O)NC(=O)[C@H]([C@@H](C)CC)NC2=O)cc1 [Atosiban] ([Mpa][dY](Et)ITNCP[Orn]G-NH2; disulfide 1-6)
- effect on Ca2+ transport by oxytocin and the combination oxytocin/DF01 ([2]; 10^−6 M): clearly inhibited
